Results: ChEMBL document CHEMBL1156986, “Derivatives of schisandrin with increased inhibitory potential on prostaglandin E(2) and leukotriene B(4) formation in vitro” (Bioorg Med Chem, 2010)
Activity calls are given as the source filed them. The rule behind the calls is not given here.

What was measured:
[1] = target: T1, Prostaglandin G/H synthase 1 (Ovis aries) (UniProt P05979); assay: Inhibition of ram seminal vesicle COX1 at 50 uM assessed as PGE2 concentration
T1 sequence (whole entry): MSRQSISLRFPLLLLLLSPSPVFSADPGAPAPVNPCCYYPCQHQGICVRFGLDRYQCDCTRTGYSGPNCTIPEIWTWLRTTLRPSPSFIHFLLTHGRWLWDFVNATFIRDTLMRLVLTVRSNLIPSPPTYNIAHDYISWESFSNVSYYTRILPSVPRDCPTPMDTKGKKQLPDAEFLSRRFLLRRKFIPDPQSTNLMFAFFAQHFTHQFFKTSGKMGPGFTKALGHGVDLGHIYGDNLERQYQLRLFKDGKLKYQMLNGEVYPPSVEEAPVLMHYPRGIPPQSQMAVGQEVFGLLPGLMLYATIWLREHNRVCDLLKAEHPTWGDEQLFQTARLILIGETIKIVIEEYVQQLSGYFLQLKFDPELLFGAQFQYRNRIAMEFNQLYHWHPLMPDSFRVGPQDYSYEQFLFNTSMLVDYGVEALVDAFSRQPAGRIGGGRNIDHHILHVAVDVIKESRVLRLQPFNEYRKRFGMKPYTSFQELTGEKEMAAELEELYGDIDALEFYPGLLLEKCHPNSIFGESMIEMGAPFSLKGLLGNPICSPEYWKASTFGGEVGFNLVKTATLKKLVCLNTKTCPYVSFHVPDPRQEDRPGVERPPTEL

[2] = target: T2, Prostaglandin G/H synthase 2 (Ovis aries) (UniProt P79208); assay: Inhibition of ram seminal vesicle COX2 at 50 uM assessed as PGE2 level by EIA; type: tissue-based
T2 sequence (whole entry): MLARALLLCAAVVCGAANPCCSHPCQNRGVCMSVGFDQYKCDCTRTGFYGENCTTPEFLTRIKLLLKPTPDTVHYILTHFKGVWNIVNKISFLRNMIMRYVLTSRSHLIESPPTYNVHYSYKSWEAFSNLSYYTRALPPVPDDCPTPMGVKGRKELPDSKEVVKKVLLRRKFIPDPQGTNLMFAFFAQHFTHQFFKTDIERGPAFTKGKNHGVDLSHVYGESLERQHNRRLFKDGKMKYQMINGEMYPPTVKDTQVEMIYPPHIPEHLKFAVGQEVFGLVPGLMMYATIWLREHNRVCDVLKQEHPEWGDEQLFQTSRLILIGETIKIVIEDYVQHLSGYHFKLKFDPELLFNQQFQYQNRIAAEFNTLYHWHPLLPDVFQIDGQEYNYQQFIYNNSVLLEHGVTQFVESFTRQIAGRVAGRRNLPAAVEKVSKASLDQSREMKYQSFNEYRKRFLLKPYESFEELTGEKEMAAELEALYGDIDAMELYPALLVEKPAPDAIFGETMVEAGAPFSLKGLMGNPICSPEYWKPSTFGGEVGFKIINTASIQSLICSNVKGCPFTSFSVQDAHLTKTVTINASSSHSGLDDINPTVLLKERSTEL

[3] = target: T3, Polyunsaturated fatty acid 5-lipoxygenase (Homo sapiens) (UniProt P09917); assay: Inhibition of 5-LOX-mediated LTB4 production from stimulated human neutrophile granulocytes at 50 uM after 10 mins by EIA
T3 sequence (whole entry): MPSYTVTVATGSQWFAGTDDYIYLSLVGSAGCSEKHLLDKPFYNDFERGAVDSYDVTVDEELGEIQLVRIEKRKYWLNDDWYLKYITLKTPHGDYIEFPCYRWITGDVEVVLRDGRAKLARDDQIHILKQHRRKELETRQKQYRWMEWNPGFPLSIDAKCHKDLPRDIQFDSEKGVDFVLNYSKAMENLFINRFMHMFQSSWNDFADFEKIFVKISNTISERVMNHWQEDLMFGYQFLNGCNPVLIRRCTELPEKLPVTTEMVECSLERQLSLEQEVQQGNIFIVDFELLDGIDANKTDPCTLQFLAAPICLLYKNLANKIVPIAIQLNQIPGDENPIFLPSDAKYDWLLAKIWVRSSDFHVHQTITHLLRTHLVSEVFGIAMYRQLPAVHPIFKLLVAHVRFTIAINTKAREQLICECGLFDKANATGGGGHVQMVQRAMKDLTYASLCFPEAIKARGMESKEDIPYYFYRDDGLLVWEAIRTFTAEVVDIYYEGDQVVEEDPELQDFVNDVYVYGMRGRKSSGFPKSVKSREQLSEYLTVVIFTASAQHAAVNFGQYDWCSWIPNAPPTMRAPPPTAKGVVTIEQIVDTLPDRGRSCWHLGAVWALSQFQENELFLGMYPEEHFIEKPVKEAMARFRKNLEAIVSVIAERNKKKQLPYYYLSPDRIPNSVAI

[4] = target: T4, Prostaglandin G/H synthase 2 (Ovis aries, UniProt P79208); assay: Inhibition of sheep placental cotyledens COX2 assessed as PGE2 level by EIA
T4 sequence (P79208 whole entry): T2 sequence (whole entry)

[5] = target: T5, Polyunsaturated fatty acid 5-lipoxygenase (Homo sapiens, UniProt P09917); assay: Inhibition of 5-LOX-mediated LTB4 production in stimulated human neutrophile granulocytes after 10 mins by EIA
T5 sequence (P09917 whole entry): T3 sequence (whole entry)

| inhibition [1] | inhibition [2] | inhibition [3] | IC50 [4] | IC50 [5] | Structure (SMILES) |
| --- | --- | --- | --- | --- | --- |
| inactive | inactive | inactive |  |  | COc1cc2c(c(OC)c1OC)-c1c(cc3c(c1OC)OCO3)C[C@H](C)[C@](C)(O)C2 |
| inactive | inactive | inactive |  |  | C/C=C(\C)C(=O)Oc1c(OC)c(OC)cc2c1-c1c(cc(OC)c(OC)c1OC)C[C@](C)(O)[C@@H](C)C2 |
| inactive |  | 37.3% | 32.1 µM |  | CC(O)C1(C)Cc2cc(O)c(O)c(O)c2-c2c(cc(O)c(O)c2O)C1 (stereo unspecified) |
| inactive | inactive | inactive |  |  | C/C=C(/C)C(=O)Oc1c(OC)c(OC)cc2c1-c1c(cc(OC)c(OC)c1OC)C[C@](C)(O)[C@@H](C)C2 |
| inactive | inactive | inactive |  |  | COc1cc2c(c(OC)c1OC)-c1c(cc(OC)c(OC)c1OC)C[C@](C)(O)[C@@H](C)C2 |
| inactive |  |  |  | 4.5 µM | COc1cc2c(c(OC)c1OC)-c1c(cc(OC)c(OC)c1OC)CC(C)(C(C)I)C2 (stereo unspecified) |
| inactive |  |  |  | 4.2 µM | COc1cc2c(c(O)c1O)-c1c(cc(OC)c(O)c1O)CC(C)(C(C)O)C2 (stereo unspecified) |
| inactive | inactive |  |  |  | COc1cc2c(c(O)c1O)-c1c(cc(OC)c(O)c1O)C[C@](C)(O)[C@@H](C)C2 |
